Measurements reported in US20200208111A1, “GENOME-EDITED NK CELL AND METHODS OF MAKING AND USING” (REGENTS OF THE UNIVERSITY OF MINNESOTA, priority 2016, published 2020).

How the values were obtained:
PD1 = test: CRISPR/Cas9 gene editing at PD1 in primary human NK cells, Surveyor nuclease activity assay; format: cell-based; conditions: chemically modified gRNA and Cas9 mRNA; 72 hours post electroporation
Description: For FIGS. 1-7 (as appropriate), activity of the gRNAs was quantified by a Surveyor Digest, gel electrophoresis, and densitometry (Guschin et al., Methods Mol. Biol., 2010, 649:247-256).
Unstimulated or stimulated CD3^−CD56^+ NK cells were nucleofected using the AMAXA nucleofection system (Human Macrophage Kit, Lonza Group, Basel, Switzerland). Cells were counted and resuspended at a density of 3.0×10^6 cells in 100 μL of Resuspension buffer, and the following reagents were added to the cells and buffer prior to nucleofection: 10 μg, 15 μg, or 20 μg mRNA Cas9 (TriLink. BioTechnologies, San Diego, Calif.), and 10 μg, 20 μg, or 30 μg gRNA (TriLink BioTechnologies, San Diego, Calif.). Three days after nucleofection, cells were harvested and gRNA activity was measured as above.

CISH = CISH expression in NK cells after electroporation, protein lysates on Wes machine with CISH-specific antibody; format: cell-based, human; conditions: with Cas9 mRNA, compared to matched donor samples electroporated with Cas9 mRNA alone; five days after electroporation; n=3 donors
Description: NK cells (3×10^6) from three donors (donors 070, 380, and 437) stimulated with aAPCs were electroporated using the optimized NEON electroporation conditions with 10 μg Cas9 mRNA and 10 μg CISH gRNA. Five days after electroporation, cells were harvested and protein lysates were run with a CISH-specific antibody on a Wes machine (Protein Simple, San Jose, Calif.) and CISH expression (area under peak) normalized to ([…] was analyzed using Compass Software (Protein Simple, Bio-Techne, Minneapolis, Minn.). Results are shown in FIG. 9.

TIGIT = TIGIT expression in knockout NK cells by flow cytometry; format: cell-based, human; conditions: with Cas9 mRNA, compared to matched donor samples electroporated with Cas9 mRNA alone; five days after electroporation; n=2 donors
Description: 3×10^6 NK cells from two donors (donors 407 and 613) stimulated with aAPCs were electroporated using the optimized NEON electroporation conditions with 10 μg Cas9 mRNA and 10 μg gRNA. Five days after electroporation, cells were harvested and stained with antibodies for CD56, CD3, TIGIT, and SYTOX Blue viability dye. Cells were gated on single cells (FSC-H vs FSC-A), CD56^+, CD3^−, SYTOX Blue^−, and TIGIT^+. TIGIT expression in knockout cells was compared to matched donor samples electroporated with Cas9 mRNA alone.

In the case of “PD1 gRNA: guide RNA CCUGCUCGUGGUGACCGAAG (SEQ ID NO: 11), chemically modified (chemically modified, pattern not given here)”, the “Gene modification of NK cells” value (PD1) is reported as “gene modification of NK cells was induced”.

“CISH gRNA: guide RNA GGGUUCCAUUACGGCCAGCG (SEQ ID NO: 14) (listed as RNA, chemistry not given here)” was tested, and the CISH expression (CISH) was “decreased”.

With “TIGIT gRNA: guide RNA GACCUGGGUCACUUGUGCCG (SEQ ID NO: 13) (listed as RNA, chemistry not given here)” the TIGIT expression (TIGIT) was “decreased”.
